Test results from EP0008269A1, “Medicines containing as active ingredients compounds of the benzene-sulfone type; compounds of this type and process for their preparation” (CHOAY S.A., priority 1978, dated 1980).

Experiments:
[1] = test system: ulcères provoqués par immobilisation; assay: Antiulcer activity: restraint (immobilisation) ulcer in rats; format: in vivo; details: rat, 10 mg/kg i.p., compared with controls
Experimental: Elle est déterminée sur les ulcères provoqués par immobilisation chez le rat. La méthode de mesure est celle décrite par G. Narcisse (Thérapie, 1972, 27, 705). La substance est administrée par voie intrapéritonéale, à raison de 10 mg/kg.
Par comparaison avec des témoins, le pourcentage de protection, dans le cas du produit de l'exemple 22, est de 61,3 %.

fibrillation = assay: Antifibrillant activity: chloroform-induced cardiac fibrillation in mice; format: in vivo, souris; details: 100 mg/kg i.p., 15 min before chloroform exposure
Experimental: Pour ces essais, on utilise comme précédemment des lots de 10 souris auxquelles sont administrés, par voie intrapéritonéale, 0,5 ml d'une solution ou suspension de substance étudiée dans du soluté isotonique.
Les souris sont traitées suivant une méthode voisine de celle décrite par B. Vargaftig et J.L. Coignet (Eur. J. Pharmacol., 1969, 6, 49). Selon cette méthode, les souris sont soumises à une atmosphère chargée d'une quantité déterminée de chloroforme. Lorsque les mouvements respiratoires cessent, le thorax est ouvert et le coeur examiné pour l'observation des tremblements superficiels très rapides. La fibrillation est positive lorsque ces mouvements sont observés pendant plus de 5 secondes.
La substance étudiée est administrée à raison de 100 mg/kg 15 minutes avant l'exposition au chloroforme.
La protection observée pour les substances des exemples 22 et 27 est d'environ 30 %.

vomissements = assay: Antiemetic activity: apomorphine-induced vomiting in dogs; format: in vivo, chiens Beagle; details: 1 mg/kg intramuscular, 30 min before apomorphine 0,1 mg/kg s.c., vomiting counted for the next half hour
Experimental: Les essais sont effectués sur des chiens Beagle adultes de 8 à 12 kg, qui sont mis à jeun pendant 24 heures.
Chaque animal est son propre témoin, un essai sans protection étant réalisé 8 jours avant l'essai proprement dit en présence de la substance étudiée.
Les substances étudiées sont administrées dans du soluté isotonique à raison de 1 mg/kg et par voie intramusculaire. 30 minutes après, on injecte l'apomorphine par voie sous-cutanée, à raison de 0,1 mg/kg., et l'on dénombre les vomissements dans la demi-heure suivante.
Dans ces conditions, on a observé, pour les substances des exemples 22, 24, 26 et 27, une réduction du nombre de vomissements qui est respectivement de 50,8 %, 28,2 %, 44,2 %, 47,6 %.

facteurs de coagulation = assay: Activity on coagulation factors: thrombo-elastography on blood samples (terms r and k)
Text: L'étude est faite par thrombo-élastographie sur des échantillons sanguins auxquels sont ajoutées des quantités dosées des substances actives selon l'invention.
La mesure des termes r (temps d'apparition de la fibrine pendant lequel la viscosité ne varie pas) et k (temps d'accroissement de la viscosité jusqu'à une valeur donnée) montre, pour les échantillons traités à l'aide de la substance de l'exemple 7, une augmentation de 32 % pour 10/ug/ml et de 45 % pour 100/ug/ml.

[2] = test system: cellules de la Lignée L.1210; assay: Cytostatic activity: growth inhibition of L.1210 cells; format: cell-based; details: L.1210 cells in culture
Experimental: Cette activité est étudiée en mesurant le pouvoir d'in- hibition de la croissance de cellules de la Lignée L.1210 cultivée sur un milieu approprié.
Ce pouvoir est exprimé en poids de produit par 10^5 cellules inhibant de 50 % la croissance cellulaire.
Pour la substance de l'exemple 5, ce poids est de 6 µg/10^5 cellules, pour celle de l'exemple 7, il est de 4 µg/10^5 cellules.

SMILES	protection (fibrillation) (fibrillation) [%]	réduction du nombre de vomissements (vomissements)	poids de produit par 10^5 cellules inhibant de 50 % la croissance cellulaire [2] [µg/10^5 cellules]	further results
COc1ccc(Cl)cc1S(=O)(=O)CCN1CCOCC1 [Exemple 22]	~30	50,8%		pourcentage de protection [1]: 61,3%
COc1ccc(Cl)cc1S(=O)(=O)CCCN1CCCC1 [Exemple 26]		44,2%		
COc1ccc(Cl)cc1S(=O)(=O)CCCl [Exemple 7]			4	augmentation des termes r et k (facteurs de coagulation; 10/ug/ml added to blood samples): 32%; augmentation des termes r et k (facteurs de coagulation; 100/ug/ml added to blood samples): 45%
COc1ccccc1S(=O)(=O)CCCl [Exemple 5]			6	
COc1ccc(Cl)cc1S(=O)(=O)CCCN1CCCCC1 [Exemple 27]	~30	47,6%		
COc1ccc(Cl)cc1S(=O)(=O)CCN1CCCCC1 [Exemple 24]		28,2%		
